Drawing on PubChem BioAssay (NCI), this text covers GI50 and TGI for eight compounds.

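In this assay, cells in 96-well plates receive the compound at five concentrations for 48 hours. Endpoints are linearly interpolated between the surrounding concentrations. The concentration for 50% growth inhibition is given as GI50. TGI: total growth inhibition.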 A value given as a limit tells only on which side of the number the result lay.

Test systems include HCT-15 colon; HS 578T breast; K-562 leukemia; MCF7 breast; NCI-H23 lung; SK-MEL-28 melanoma; SN12C renal; SNB-19 CNS; U251 CNS; UO-31 renal.
What all share (test): inhibition of tumour cell growth, NCI panel, 48 h

As for `NC(=O)c1cc(I)ccc1NC(=O)/C=C/c1ccccc1Cl`, the GI50 in the experiment with HCT-15 colon was 0.657 µM; with HS 578T breast it was 0.34 µM; in the experiment on K-562 leukemia it was 0.313 µM; with MCF7 breast, 0.333 µM; in the experiment on NCI-H23 lung, 1.07 µM; in the experiment with SK-MEL-28 melanoma, 0.374 µM. In addition, the GI50 in the experiment on SN12C renal was 1.32 µM; in the experiment on SNB-19 CNS, 0.869 µM; in the experiment with U251 CNS, 0.578 µM; in the experiment on UO-31 renal, 1.79 µM. The TGI in the experiment with HCT-15 colon is greater than 68.3 µM; with HS 578T breast, 2.19 µM; in the experiment with K-562 leukemia, 3.43 µM; with MCF7 breast, 25.7 µM; in the experiment with NCI-H23 lung, 19.6 µM; with SK-MEL-28 melanoma, 21.8 µM. In addition, the TGI is 36.7 µM with SN12C renal, greater than 47.2 µM in the experiment on SNB-19 CNS, 19.5 µM in the experiment with U251 CNS and 31.8 µM with UO-31 renal.

With `CCC(C)C(=O)O[C@H]1C(=O)O[C@@H]2C[C@H]3C(C)=CC(=O)[C@@H](O)[C@]3(C)[C@H]3[C@@H](O)[C@H](O)[C@@]4(C)OC[C@]32[C@@H]14` (stereo partly specified), the TGI in the experiment with HCT-15 colon is 0.071 µM; with HS 578T breast it was less than 0.01 µM; in the experiment with K-562 leukemia it was 0.214 µM; in the experiment with MCF7 breast it was less than 0.01 µM; with NCI-H23 lung, less than 0.01 µM; in the experiment with SK-MEL-28 melanoma it was 0.542 µM. Further, the TGI in the experiment with SN12C renal is less than 0.0135 µM; with SNB-19 CNS, less than 0.0291 µM; with U251 CNS, less than 0.0345 µM; in the experiment on UO-31 renal, 0.0859 µM.

Consider `CCCCCCCCCCCCNC(=O)N[C@H](C(=O)N[C@H]1/C=C/CCNC(=O)/C=C/[C@H](C)NC1=O)C(C)C`, for which the GI50 with HCT-15 colon was 2.76 µM; in the experiment with HS 578T breast it was 0.333 µM; in the experiment on K-562 leukemia it was 0.456 µM; with MCF7 breast, 0.0577 µM; in the experiment on NCI-H23 lung, 0.0513 µM; in the experiment on SK-MEL-28 melanoma, 0.208 µM. The GI50 with SN12C renal was 0.184 µM; in the experiment on SNB-19 CNS, 0.0647 µM; with U251 CNS, 0.0412 µM; in the experiment on UO-31 renal, 32.2 µM. In addition, the TGI was greater than 100 µM in the experiment with HCT-15 colon; 24 µM in the experiment on HS 578T breast; 15.1 µM with K-562 leukemia; 15.6 µM with MCF7 breast; 0.612 µM in the experiment with NCI-H23 lung; 0.708 µM in the experiment with SK-MEL-28 melanoma. The TGI with SN12C renal was 0.591 µM; in the experiment on SNB-19 CNS, 15 µM; in the experiment with U251 CNS, 0.209 µM; in the experiment on UO-31 renal, greater than 100 µM.

On to `NS(=O)(=O)c1ccc(N=Nc2c(O)[nH]c3ccc(C(=O)NCCc4cnc[nH]4)cc23)cc1`, for which the GI50 in the experiment with HCT-15 colon, in the experiment with HS 578T breast, in the experiment with K-562 leukemia, in the experiment with MCF7 breast, in the experiment with NCI-H23 lung and in the experiment on SK-MEL-28 melanoma was greater than 25 µM throughout. Also, the GI50 with SN12C renal, with SNB-19 CNS, with U251 CNS and in the experiment on UO-31 renal was greater than 25 µM in each case. Moreover, the TGI with HCT-15 colon, in the experiment on HS 578T breast, with K-562 leukemia, with MCF7 breast, with NCI-H23 lung and in the experiment with SK-MEL-28 melanoma was greater than 25 µM each time. For the same compound, the TGI in the experiment with SN12C renal, in the experiment on SNB-19 CNS, in the experiment on U251 CNS and with UO-31 renal was greater than 25 µM in each case.

For the compound `CN1CCN(Cc2ccc(NC(=O)c3cncc(C#Cc4c(N)ncc5c(F)cccc45)c3)cc2C(F)(F)F)CC1`, the GI50 with HCT-15 colon was 0.6 µM; with HS 578T breast, 0.812 µM; with K-562 leukemia, 0.005 µM; with MCF7 breast, 0.55 µM; in the experiment with NCI-H23 lung it was 0.804 µM; in the experiment with SK-MEL-28 melanoma it was 0.831 µM. Further, the GI50 was 0.743 µM in the experiment on SN12C renal, 0.867 µM in the experiment on SNB-19 CNS, 0.725 µM with U251 CNS and 0.712 µM in the experiment on UO-31 renal. Besides, the TGI is 1.3 µM with HCT-15 colon; 2.18 µM in the experiment on HS 578T breast; 0.738 µM with K-562 leukemia; 1.31 µM in the experiment with MCF7 breast; 1.69 µM with NCI-H23 lung; 1.56 µM in the experiment with SK-MEL-28 melanoma. In addition, the TGI in the experiment with SN12C renal stood at 1.43 µM; in the experiment with SNB-19 CNS, 1.59 µM; with U251 CNS it was 1.42 µM; in the experiment with UO-31 renal, 1.42 µM.

As to `NC(CP(=O)(O)O)C(=O)O` (stereo unspecified), the TGI in the experiment on HCT-15 colon, in the experiment on HS 578T breast, with K-562 leukemia, with MCF7 breast, in the experiment with NCI-H23 lung and with SK-MEL-28 melanoma was greater than 100 µM in each case. Also, the TGI with SN12C renal, in the experiment with SNB-19 CNS, in the experiment on U251 CNS and in the experiment on UO-31 renal was greater than 100 µM throughout.

For the compound `Cc1cc(O[C@@H]2O[C@@H](C)[C@H](O)[C@@H](O)[C@H]2O)c2c3c(c(O[C@@H]4O[C@@H](C)[C@H](O)[C@@H](O)[C@H]4O)cc2c1)C(=O)c1c(O)cccc1C3=O`, the GI50 in the experiment on HCT-15 colon, with HS 578T breast, with K-562 leukemia, with MCF7 breast, with NCI-H23 lung and with SK-MEL-28 melanoma was greater than 30 µM in each case. The GI50 with SN12C renal, in the experiment on SNB-19 CNS, in the experiment with U251 CNS and with UO-31 renal was greater than 30 µM throughout. The TGI with HCT-15 colon, in the experiment with HS 578T breast, with K-562 leukemia, with MCF7 breast, with NCI-H23 lung and with SK-MEL-28 melanoma was greater than 30 µM throughout. Also, the TGI in the experiment with SN12C renal, in the experiment on SNB-19 CNS, with U251 CNS and with UO-31 renal was greater than 30 µM each time.

`COc1cccc(CCNC(=O)CC(c2ccccc2)(c2ccccc2)c2ccccc2)c1`: the GI50 in the experiment on HCT-15 colon was greater than 100 µM; in the experiment on HS 578T breast, greater than 100 µM; in the experiment with K-562 leukemia, 6.03 µM; in the experiment on MCF7 breast it was 21.5 µM; in the experiment on SK-MEL-28 melanoma, greater than 100 µM; in the experiment with SNB-19 CNS, 90.1 µM. Also, the GI50 is 4.86 µM in the experiment on U251 CNS and 4.75 µM in the experiment on UO-31 renal. The TGI in the experiment on HCT-15 colon, in the experiment with HS 578T breast, with K-562 leukemia, in the experiment with MCF7 breast, in the experiment with SK-MEL-28 melanoma and with SNB-19 CNS was greater than 100 µM in each case. For the same compound, the TGI was 55.6 µM with U251 CNS and greater than 100 µM in the experiment with UO-31 renal.
